From US10246451B2, “Propionic acid derivatives and methods of use thereof” (Aviara Pharmaceuticals, Inc., priority 2017, dated 2019)

Target: α4β1 integrin (Homo sapiens, UniProt P05556+P13612)
Assay: a4b1 IC50 (inhibition of α4β1 integrin; no method described)
Type: binding

α4β1 integrin, sequence (P13612 34-1032): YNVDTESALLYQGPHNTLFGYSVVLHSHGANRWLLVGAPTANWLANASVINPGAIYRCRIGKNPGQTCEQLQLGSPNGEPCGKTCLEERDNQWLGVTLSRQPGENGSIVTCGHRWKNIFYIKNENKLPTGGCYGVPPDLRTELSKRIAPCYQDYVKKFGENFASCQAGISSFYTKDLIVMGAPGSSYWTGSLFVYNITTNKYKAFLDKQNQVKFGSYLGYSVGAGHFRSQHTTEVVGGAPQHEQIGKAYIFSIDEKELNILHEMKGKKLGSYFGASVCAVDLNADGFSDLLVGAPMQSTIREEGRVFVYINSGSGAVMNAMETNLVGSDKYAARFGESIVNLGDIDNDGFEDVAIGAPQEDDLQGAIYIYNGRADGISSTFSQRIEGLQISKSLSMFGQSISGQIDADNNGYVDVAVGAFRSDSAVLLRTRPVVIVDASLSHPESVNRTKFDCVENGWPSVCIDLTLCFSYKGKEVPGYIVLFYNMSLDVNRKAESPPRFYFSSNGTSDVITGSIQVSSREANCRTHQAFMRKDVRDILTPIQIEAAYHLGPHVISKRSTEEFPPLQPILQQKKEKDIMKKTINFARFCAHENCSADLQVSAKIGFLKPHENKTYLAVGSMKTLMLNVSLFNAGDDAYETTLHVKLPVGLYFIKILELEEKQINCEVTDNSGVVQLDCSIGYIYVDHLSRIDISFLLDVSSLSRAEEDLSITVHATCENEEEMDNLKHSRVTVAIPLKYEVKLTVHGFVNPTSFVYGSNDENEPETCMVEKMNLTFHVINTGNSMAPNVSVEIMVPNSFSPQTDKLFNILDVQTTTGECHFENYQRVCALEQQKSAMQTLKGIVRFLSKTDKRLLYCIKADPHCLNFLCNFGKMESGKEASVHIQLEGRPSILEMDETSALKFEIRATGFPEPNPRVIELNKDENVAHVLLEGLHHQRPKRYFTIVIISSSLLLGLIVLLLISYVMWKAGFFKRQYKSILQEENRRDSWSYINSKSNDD
α4β1 integrin, sequence (P05556 21-798): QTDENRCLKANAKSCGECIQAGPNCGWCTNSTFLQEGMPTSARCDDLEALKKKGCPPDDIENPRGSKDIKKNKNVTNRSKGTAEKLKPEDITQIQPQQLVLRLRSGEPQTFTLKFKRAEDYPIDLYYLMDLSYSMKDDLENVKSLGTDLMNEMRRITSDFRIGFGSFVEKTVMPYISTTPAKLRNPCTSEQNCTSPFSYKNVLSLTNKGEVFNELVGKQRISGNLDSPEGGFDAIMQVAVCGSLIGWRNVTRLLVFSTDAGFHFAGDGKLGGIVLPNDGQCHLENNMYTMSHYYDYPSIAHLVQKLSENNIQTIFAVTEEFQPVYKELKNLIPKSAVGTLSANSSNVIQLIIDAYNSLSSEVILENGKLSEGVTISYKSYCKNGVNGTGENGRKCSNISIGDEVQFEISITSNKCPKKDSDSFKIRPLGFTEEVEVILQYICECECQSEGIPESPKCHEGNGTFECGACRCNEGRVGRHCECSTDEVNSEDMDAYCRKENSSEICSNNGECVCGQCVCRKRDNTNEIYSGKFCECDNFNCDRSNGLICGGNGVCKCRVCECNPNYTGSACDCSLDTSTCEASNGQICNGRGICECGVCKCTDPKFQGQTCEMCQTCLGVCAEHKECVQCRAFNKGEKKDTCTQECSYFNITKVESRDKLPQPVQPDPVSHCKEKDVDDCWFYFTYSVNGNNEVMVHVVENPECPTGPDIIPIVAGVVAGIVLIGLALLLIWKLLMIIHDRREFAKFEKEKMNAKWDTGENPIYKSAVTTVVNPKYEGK

Structure (SMILES)	IC50 [nM]
Cc1ccccc1C(F)(F)c1cccc([C@@H](CC(=O)O)NC(=O)Nc2c(O)ccn(C)c2=O)c1 [Compound 3-66, sodium (R)-3-(3-(difluoro(o-tolyl)methyl)phenyl)-3-(3-(1-methyl-4-oxido-2-oxo-1,2-dihydropyridin-3-yl)ureido)propanoate]	> 200
Cc1cn(C)c(=O)c(NC(=O)N[C@@H](CC(=O)O)c2ccc(Cc3ccccc3Cl)cc2)c1O [Compound 1-27, sodium (S)-3-(4-(2-chlorobenzyl)phenyl)-3-(3-(4-hydroxy-1,5-dimethyl-2-oxo-1,2-dihydropyridin-3-yl)ureido)propanoate]	> 200
COc1ccccc1Oc1cccc([C@H](CC(=O)O)NC(=O)Nc2c(O)ccn(C)c2=O)c1 [Compound 3-68, sodium (S)-3-(3-(2-methoxyphenoxy)phenyl)-3-(3-(1-methyl-4-oxido-2-oxo-1,2-dihydropyridin-3-yl)ureido)propanoate]	< 20
Cc1ccccc1Cc1cccc([C@H](CC(=O)O)NC(=O)Nc2c(O)ccn(C)c2=O)c1 [Compound 3-81, sodium (S)-3-(3-(1-methyl-4-oxido-2-oxo-1,2-dihydropyridin-3-yl)ureido)-3-(3-(2-methylbenzyl)phenyl)propanoate]	< 20
Cc1ccc(Oc2cccc([C@H](CC(=O)O)NC(=O)Nc3c(O)ccn(C)c3=O)c2)cc1 [Compound 3-85, sodium (S)-3-(3-(1-methyl-4-oxido-2-oxo-1,2-dihydropyridin-3-yl)ureido)-3-(3-(p-tolyloxy)phenyl)propanoate]	< 20
Cn1ccc(O)c(NC(=O)N[C@@H](CC(=O)O)c2cccc(Cc3cccc(C(F)(F)F)c3)c2)c1=O [Compound 3-89, sodium (S)-3-(3-(1-methyl-4-oxido-2-oxo-1,2-dihydropyridin-3-yl)ureido)-3-(3-(3-(trifluoromethyl)benzyl)phenyl)propanoate]	< 20
Cn1ccc(O)c(NC(=O)N[C@@H](CC(=O)O)c2cccc(Cc3ccccc3F)c2)c1=O [Compound 3-93, sodium (S)-3-(3-(2-fluorobenzyl)phenyl)-3-(3-(1-methyl-4-oxido-2-oxo-1,2-dihydro-pyridin-3-yl)ureido)propanoate]	< 20
Cn1ccc(O)c(NC(=O)N[C@@H](CC(=O)O)c2ccc(Cc3ccccc3)s2)c1=O [Compound 3-96, sodium (S)-3-(5-benzylthiophen-2-yl)-3-(3-(1-methyl-4-oxido-2-oxo-1,2-dihydro-pyridin-3-yl)ureido)propanoate]	< 20
Cc1ccccc1Cc1ccc([C@H](CC(=O)O)NC(=O)Nc2c(O)cc(C)n(C)c2=O)s1 [Compound 2-15, sodium (S)-3-(3-(1,6-dimethyl-4-oxido-2-oxo-1,2-dihydropyridin-3-yl)ureido)-3-(5-(2-methylbenzyl)thiophen-2-yl)propanoate]	≤ 20
Cc1cn(C)c(=O)c(NC(=O)N[C@@H](CC(=O)O)c2cccc(Oc3ccccc3)c2)c1O [Compound 1-22, sodium (S)-3-(3-(1,5-dimethyl-4-oxido-2-oxo-1,2-dihydropyridin-3-yl)ureido)-3-(3-phenoxyphenyl)propanoate]	< 200
Cc1cccc(C)c1Oc1cccc([C@H](CC(=O)O)NC(=O)Nc2c(O)ccn(C)c2=O)c1 [Compound 3-87, sodium(S)-3-(3-(2,6-dimethylphenoxy)phenyl)-3-(3-(1-methyl-4-oxido-2-oxo-1,2-dihydropyridin-3-yl)ureido)propanoate]	< 20
Cc1ccccc1Cc1cccc([C@H](CC(=O)O)NC(=O)Nc2c(O)cc(C)n(C)c2=O)c1 [Compound 2-14, sodium (S)-3-(3-(1,6-dimethyl-4-oxido-2-oxo-1,2-dihydropyridin-3-yl)ureido)-3-(3-(2-methylbenzyl)phenyl)propanoate]	< 20
Cc1cn(C)c(=O)c(NC(=O)NC(CC(=O)O)c2cccc(Oc3ccccc3)c2)c1O (stereo not shown) [Compound 1-21, sodium 3-(3-(1,5-dimethyl-4-oxido-2-oxo-1,2-dihydropyridin-3-yl)ureido)-3-(3-phenoxyphenyl)propanoate]	< 200
Cn1ccc(O)c(NC(=O)N[C@@H](CC(=O)O)c2cccc(Cc3ccccc3C(F)(F)F)c2)c1=O [Compound 3-88, sodium (S)-3-(3-(1-methyl-4-oxido-2-oxo-1,2-dihydropyridin-3-yl)ureido)-3-(3-(2-(trifluoromethyl)benzyl)phenyl)propanoate]	< 20
Cn1ccc(O)c(NC(=O)N[C@@H](CC(=O)O)c2cccc(Cc3ccccc3OC(F)F)c2)c1=O [Compound 3-91, sodium(S)-3-(3-(2-(difluoromethoxy)benzyl)phenyl)-3-(3-(1-methyl-4-oxido-2-oxo-1,2-dihydropyridin-3-yl)ureido) propanoate]	< 20
Cc1ccccc1Oc1cccc([C@H](CC(=O)O)NC(=O)Nc2c(O)ccn(C)c2=O)c1 [Compound 3-67, sodium (S)-3-(3-(1-methyl-4-oxido-2-oxo-1,2-dihydropyridin-3-yl)ureido)-3-(3-(o-tolyloxy)phenyl)propanoate]	< 20

Structure (SMILES)	IC50 [nM]
Cc1ccc(Cc2cccc([C@H](CC(=O)O)NC(=O)Nc3c(O)c(C)cn(C)c3=O)c2)cc1 [Compound 1-30, sodium (S)-3-(3-(1,5-dimethyl-4-oxido-2-oxo-1,2-dihydropyridin-3-yl)ureido)-3-(3-(4-methylbenzyl)phenyl)propanoate]	< 200
COc1ccccc1Cc1cccc([C@H](CC(=O)O)NC(=O)Nc2c(O)ccn(C)c2=O)c1 [Compound 3-92]	< 20
Cc1cn(C)c(=O)c(NC(=O)NC(CC(=O)O)c2cccc(Cc3ccc(Cl)cc3)c2)c1O (stereo not shown) [Compound 1-26, sodium 3-(3-(4-chlorobenzyl)phenyl)-3-(3-(1,5-dimethyl-4-oxido-2-oxo-1,2-dihydropyridin-3-yl)ureido)propanoate]	> 200
Cc1ccc(Cc2ccc([C@H](CC(=O)O)NC(=O)Nc3c(O)ccn(C)c3=O)cc2)cc1 [Compound 3-79, sodium (S)-3-(3-(1-methyl-4-oxido-2-oxo-1,2-dihydropyridin-3-yl)ureido)-3-(4-(4-methylbenzyl)phenyl)propanoate]	> 200
Cc1cccc(Oc2cccc([C@H](CC(=O)O)NC(=O)Nc3c(O)ccn(C)c3=O)c2)c1 [Compound 3-84, sodium (S)-3-(3-(1-methyl-4-oxido-2-oxo-1,2-dihydropyridin-3-yl)ureido)-3-(3-(m-tolyloxy)phenyl)propanoate]	< 20
Cc1ccccc1Cc1cccc([C@H](CC(=O)O)NC(=O)Nc2c(O)c(C)cn(C)c2=O)c1 [Compound 1-28, sodium (S)-3-(3-(1,5-dimethyl-4-oxido-2-oxo-1,2-dihydropyridin-3-yl)ureido)-3-(3-(2-methylbenzyl)phenyl)propanoate]	< 20
Cn1ccc(O)c(NC(=O)N[C@@H](CC(=O)O)c2cccc(Oc3ccc(F)cc3F)c2)c1=O [Compound 3-86, sodium(S)-3-(3-(2,4-difluorophenoxy)phenyl)-3-(3-(1-methyl-4-oxido-2-oxo-1,2-dihydropyridin-3-yl)ureido)propanoate]	< 20
Cc1cccc(Cc2cccc([C@H](CC(=O)O)NC(=O)Nc3c(O)c(C)cn(C)c3=O)c2)c1 [Compound 1-29, sodium (S)-3-(3-(1,5-dimethyl-4-oxido-2-oxo-1,2-dihydropyridin-3-yl)ureido)-3-(3-(3-methylbenzyl)phenyl)propanoate]	< 200
Cc1cn(C)c(=O)c(NC(=O)NC(CC(=O)O)c2cccc(Cc3ccccc3Cl)c2)c1O (stereo not shown) [Compound 1-24, sodium 3-(3-(2-chlorobenzyl)phenyl)-3-(3-(1,5-dimethyl-4-oxido-2-oxo-1,2-dihydropyridin-3-yl)ureido)propanoate]	< 200
Cc1ccccc1Cc1ccc([C@H](CC(=O)O)NC(=O)Nc2c(O)ccn(C)c2=O)s1 [Compound 3-95, sodium (S)-3-(3-(1-methyl-4-oxido-2-oxo-1,2-dihydropyridin-3-yl)ureido)-3-(5-(2-methylbenzyl)thiophen-2-yl)propanoate]	< 20
Cc1cccc(Cc2cccc([C@H](CC(=O)O)NC(=O)Nc3c(O)ccn(C)c3=O)c2)c1 [Compound 3-83, sodium (S)-3-(3-(1-methyl-4-oxido-2-oxo-1,2-dihydropyridin-3-yl)ureido)-3-(3-(3-methylbenzyl)phenyl)propanoate]	< 200
Cc1ccccc1Oc1ccc([C@H](CC(=O)O)NC(=O)Nc2c(O)ccn(C)c2=O)cc1 [Compound 3-74, sodium (S)-3-(3-(1-methyl-4-oxido-2-oxo-1,2-dihydropyridin-3-yl)ureido)-3-(4-(o-tolyloxy)phenyl)propanoate]	< 20
Cc1ccccc1Cc1ccc([C@H](CC(=O)O)NC(=O)Nc2c(O)ccn(C)c2=O)cc1 [Compound 3-77, sodium (S)-3-(3-(1-methyl-4-oxido-2-oxo-1,2-dihydropyridin-3-yl)ureido)-3-(4-(2-methylbenzyl)phenyl)propanoate]	< 200
Cc1cn(C)c(=O)c(NC(=O)NC(CC(=O)O)c2cccc(Cc3cccc(Cl)c3)c2)c1O (stereo not shown) [Compound 1-25, sodium 3-(3-(3-chlorobenzyl)phenyl)-3-(3-(1,5-dimethyl-4-oxido-2-oxo-1,2-dihydropyridin-3-yl)ureido)propanoate]	< 200
Cc1cccc(C)c1Cc1cccc([C@H](CC(=O)O)NC(=O)Nc2c(O)ccn(C)c2=O)c1 [Compound 3-94, sodium (S)-3-(3-(2,6-dimethylbenzyl)phenyl)-3-(3-(1-methyl-4-oxido-2-oxo-1,2-dihydropyridin-3-yl)ureido)propanoate]	< 20
